Test results published in PMC10850145, “Hormonal steroids induce multidrug resistance and stress response genes in Neisseria gonorrhoeae by binding to MtrR” (Nature Communications, 2024).
Where “and” joins values, the source holds several entries; their conditions need not be identical. Equal values may be shown once. Read-outs that look alike come from different tables or passages of the source.

System: mtrC-lacZ expression
Type: cell-based, Neisseria gonorrhoeae
Details: for β-galactosidase activity, Mean / β-galactosidase activity, single replicate: mtrCDE block (c1-c37), ΔmtrR + mtrR R176E in trans; for β-galactosidase activity, individual replicate / β-galactosidase activity, Miller units (single replicate): mtrR WT in cis; for β-galactosidase activity, individual replicate: single replicate values, second (right) block
[1] = mtrC-lacZ, ΔmtrR + mtrR D171A in trans, 6.25 µM hormone, single replicate
[2] = mtrC-lacZ, ΔmtrR + mtrR D171A in trans, 12.5 µM hormone, single replicate
[3] = mtrC-lacZ, ΔmtrR + mtrR D171A in trans, 25 µM hormone, single replicate
[4] = mtrC-lacZ, ΔmtrR + mtrR D171A in trans, 50 µM hormone, single replicate
[5] = mtrC-lacZ, ΔmtrR + mtrR WT in trans, 6.25 µM hormone, single replicate
[6] = mtrC-lacZ, ΔmtrR + mtrR WT in trans, 12.5 µM hormone, single replicate
[7] = mtrC-lacZ, ΔmtrR + mtrR WT in trans, 25 µM hormone, single replicate
[8] = mtrC-lacZ, ΔmtrR + mtrR WT in trans, 50 µM hormone, single replicate

SMILES: C[C@]12CC[C@@H]3c4ccc(O)cc4CC[C@H]3[C@@H]1CC[C@@H]2O [β-Estradiol, β-estradiol]
- Miller units, Mean (Mean of plate rows 1-4, plate columns 1-6 (first strain), 6.25 µM hormone): 83 Miller units
- Miller units, Mean (Mean of plate rows 1-4, plate columns 1-6 (first strain), 12.5 µM hormone): 113 Miller units
- Miller units, Mean (Mean of plate rows 1-4, plate columns 1-6 (first strain), 25 µM hormone): 148 Miller units
- Miller units, Mean (Mean of plate rows 1-4, plate columns 1-6 (first strain), 50 µM hormone): 162 Miller units
- Miller units, Mean (Mean of plate rows 1-4, plate columns 7-12 (second strain), 6.25 µM hormone): 163 Miller units
- Miller units, Mean (Mean of plate rows 1-4, plate columns 7-12 (second strain), 12.5 µM hormone): 152 Miller units
- Miller units, Mean (Mean of plate rows 1-4, plate columns 7-12 (second strain), 25 µM hormone): 175 Miller units
- Miller units, Mean (Mean of plate rows 1-4, plate columns 7-12 (second strain), 50 µM hormone): 160 Miller units
- induction of mtrC expression (complemented (MtrR+) strains, increasing hormone): could be induced
- induction of mtrC expression (loss of MtrR or MtrR-D171A strain): abrogated
- Miller units, Mean (mtrC-lacZ, WT strain, 6.25 µM hormone): 131 Miller units
- β-galactosidase activity (Miller units) (mtrC-lacZ, WT strain, 6.25 µM hormone, single replicate): 164 Miller units and 114 Miller units and 120 Miller units
- Miller units, Mean (mtrC-lacZ, WT strain, 12.5 µM hormone): 148 Miller units
- β-galactosidase activity (Miller units) (mtrC-lacZ, WT strain, 12.5 µM hormone, single replicate): 178 Miller units and 161 Miller units and 132 Miller units
- Miller units, Mean (mtrC-lacZ, WT strain, 25 µM hormone): 177 Miller units
- β-galactosidase activity (Miller units) (mtrC-lacZ, WT strain, 25 µM hormone, single replicate): 160 Miller units and 189 Miller units
- Miller units, Mean (mtrC-lacZ, WT strain, 50 µM hormone): 224 Miller units
- β-galactosidase activity (Miller units) (mtrC-lacZ, WT strain, 50 µM hormone, single replicate): 242 Miller units and 240 Miller units and 211 Miller units
- Miller units, Mean (mtrC-lacZ, WT, 6.25 µM hormone): 131 Miller units
- Miller units (mtrC-lacZ, WT, 6.25 µM hormone, single replicate (plate data)): 164 Miller units and 114 Miller units and 128 Miller units and 120 Miller units
- Miller units, Mean (mtrC-lacZ, WT, 12.5 µM hormone): 148 Miller units
- Miller units (mtrC-lacZ, WT, 12.5 µM hormone, single replicate (plate data)): 178 Miller units and 161 Miller units and 120 Miller units and 132 Miller units
- Miller units, Mean (mtrC-lacZ, WT, 25 µM hormone): 177 Miller units
- Miller units (mtrC-lacZ, WT, 25 µM hormone, single replicate (plate data)): 160 Miller units and 176 Miller units and 189 Miller units
- Miller units, Mean (mtrC-lacZ, WT, 50 µM hormone): 224 Miller units
- Miller units (mtrC-lacZ, WT, 50 µM hormone, single replicate (plate data)): 242 Miller units and 240 Miller units and 203 Miller units and 211 Miller units
- Miller units, Mean (mtrC-lacZ, ΔmtrR + mtrR D171A in trans, 6.25 µM hormone): 148.9 Miller units
- Miller units [1]: 158 Miller units and 155 Miller units
- β-galactosidase activity (Miller units) [1]: 155 Miller units and 147 Miller units and 135 Miller units
- Miller units, Mean (mtrC-lacZ, ΔmtrR + mtrR D171A in trans, 12.5 µM hormone): 157.2 Miller units
- Miller units [2]: 167 Miller units and 147 Miller units
- β-galactosidase activity (Miller units) [2]: 147 Miller units and 195 Miller units and 119 Miller units
- Miller units, Mean (mtrC-lacZ, ΔmtrR + mtrR D171A in trans, 25 µM hormone): 167.0 Miller units
- Miller units [3]: 203 Miller units and 162 Miller units
- β-galactosidase activity (Miller units) [3]: 162 Miller units and 132 Miller units and 171 Miller units
- Miller units, Mean (mtrC-lacZ, ΔmtrR + mtrR D171A in trans, 50 µM hormone): 162.7 Miller units
- Miller units [4]: 193 Miller units
- β-galactosidase activity (Miller units) [4]: 188 Miller units and 124 Miller units and 146 Miller units
- Miller units, Mean (mtrC-lacZ, ΔmtrR + mtrR WT in trans, 6.25 µM hormone): 116 Miller units
- Miller units [5]: 106 Miller units and 141 Miller units and 104 Miller units and 116 Miller units
- β-galactosidase activity (Miller units) [5]: 106 Miller units and 141 Miller units and 104 Miller units and 116 Miller units
- Miller units, Mean (mtrC-lacZ, ΔmtrR + mtrR WT in trans, 12.5 µM hormone): 113 Miller units
- Miller units [6]: 119 Miller units and 115 Miller units and 110 Miller units
- β-galactosidase activity (Miller units) [6]: 119 Miller units and 115 Miller units and 110 Miller units
- Miller units, Mean (mtrC-lacZ, ΔmtrR + mtrR WT in trans, 25 µM hormone): 138 Miller units
- Miller units [7]: 133 Miller units and 147 Miller units and 127 Miller units and 144 Miller units
- β-galactosidase activity (Miller units) [7]: 133 Miller units and 147 Miller units and 127 Miller units and 144 Miller units
- Miller units, Mean (mtrC-lacZ, ΔmtrR + mtrR WT in trans, 50 µM hormone): 158 Miller units
- Miller units [8]: 176 Miller units and 161 Miller units and 132 Miller units and 164 Miller units
- β-galactosidase activity (Miller units) [8]: 176 Miller units and 161 Miller units and 132 Miller units and 164 Miller units
- Miller units, Mean (mtrC-lacZ, ΔmtrR strain, 6.25 µM hormone): 210 Miller units
- β-galactosidase activity (Miller units) (mtrC-lacZ, ΔmtrR strain, 6.25 µM hormone, single replicate): 187 Miller units and 203 Miller units and 200 Miller units
- Miller units, Mean (mtrC-lacZ, ΔmtrR strain, 12.5 µM hormone): 218 Miller units
- β-galactosidase activity (Miller units) (mtrC-lacZ, ΔmtrR strain, 12.5 µM hormone, single replicate): 197 Miller units and 237 Miller units and 209 Miller units
- Miller units, Mean (mtrC-lacZ, ΔmtrR strain, 25 µM hormone): 243 Miller units
- β-galactosidase activity (Miller units) (mtrC-lacZ, ΔmtrR strain, 25 µM hormone, single replicate): 261 Miller units and 223 Miller units and 202 Miller units
- Miller units, Mean (mtrC-lacZ, ΔmtrR strain, 50 µM hormone): 255 Miller units
- β-galactosidase activity (Miller units) (mtrC-lacZ, ΔmtrR strain, 50 µM hormone, single replicate): 220 Miller units and 317 Miller units
- Miller units, Mean (mtrC-lacZ, ΔmtrR, 6.25 µM hormone): 210 Miller units
- Miller units (mtrC-lacZ, ΔmtrR, 6.25 µM hormone, single replicate (plate data)): 203 Miller units and 200 Miller units and 187 Miller units and 250 Miller units
- Miller units, Mean (mtrC-lacZ, ΔmtrR, 12.5 µM hormone): 218 Miller units
- Miller units (mtrC-lacZ, ΔmtrR, 12.5 µM hormone, single replicate (plate data)): 237 Miller units and 209 Miller units and 197 Miller units and 228 Miller units
- Miller units, Mean (mtrC-lacZ, ΔmtrR, 25 µM hormone): 243 Miller units
- Miller units (mtrC-lacZ, ΔmtrR, 25 µM hormone, single replicate (plate data)): 223 Miller units and 202 Miller units and 261 Miller units and 287 Miller units
- Miller units, Mean (mtrC-lacZ, ΔmtrR, 50 µM hormone): 255 Miller units
- Miller units (mtrC-lacZ, ΔmtrR, 50 µM hormone, single replicate (plate data)): 317 Miller units and 220 Miller units and 261 Miller units
- β-galactosidase activity, Mean (6.25 µM): 194 Miller units
- β-galactosidase activity, single replicate (6.25 µM): 207 Miller units and 196 Miller units and 188 Miller units
- β-galactosidase activity, Mean (12.5 µM): 205 Miller units
- β-galactosidase activity, single replicate (12.5 µM): 258 Miller units and 180 Miller units and 177 Miller units and 206 Miller units
- β-galactosidase activity, Mean (25 µM): 197 Miller units
- β-galactosidase activity, single replicate (25 µM): 241 Miller units and 190 Miller units and 188 Miller units and 169 Miller units
- β-galactosidase activity, Mean (50 µM): 269 Miller units
- β-galactosidase activity, single replicate (50 µM): 316 Miller units and 254 Miller units and 275 Miller units and 231 Miller units
- β-galactosidase activity, individual replicate (6.25 µM hormone): 54 Miller units and 39 Miller units
- β-galactosidase activity, Miller units (single replicate) (6.25 µM, first data set (c15-c36)): 147 Miller units and 157 Miller units and 114 Miller units and 129 Miller units
- β-galactosidase activity, Miller units (single replicate) (6.25 µM, second data set (c53-c74)): 43 Miller units and 41 Miller units
- β-galactosidase activity, individual replicate (12.5 µM hormone): 72 Miller units and 56 Miller units
- β-galactosidase activity, Miller units (single replicate) (12.5 µM, first data set (c15-c36)): 160 Miller units and 155 Miller units and 156 Miller units and 149 Miller units
- β-galactosidase activity, Miller units (single replicate) (12.5 µM, second data set (c53-c74)): 45 Miller units and 43 Miller units
- β-galactosidase activity, individual replicate (25 µM hormone): 63 Miller units
- β-galactosidase activity, Miller units (single replicate) (25 µM, first data set (c15-c36)): 152 Miller units and 181 Miller units and 159 Miller units and 157 Miller units
- β-galactosidase activity, Miller units (single replicate) (25 µM, second data set (c53-c74)): 63 Miller units and 52 Miller units
